# Laboratory results taken from US4923802A, “Peptide substrates for the detection, characterization and purification of protein kinase C” (Immunex Corporation, priority 1985, dated 1990).
# “Also recorded” adds a separate entry of the source. Ends that are not written are not given here.
# Legend:
# [1] = system: protein kinase C; assay: Direct assay for protein kinase C: phosphorylation of peptide substrate with (gamma 32P) ATP, phosphocellulose filter counting; type: biochemical, rat
# Experimental: The peptide substrate of the present invention may be employed to assay for the presence of protein kinase C, for instance, during the above-outlined process of preparing the enzyme. The assay is based on the phosphorylation of the peptide substrate by protein kinase C. In the assay, the sample to be tested is mixed together with the peptide substrate, radiolabeled ATP, Ca^2+, phospholipid and diacylglycerol. The mixture is incubated for only a brief period to insure linearity of the reaction and then spotted onto phosphocellulose filter paper. The level of radioactivity on the filter is measured, for instance by liquid scintillation spectrometry. The level of radiation is indicative of the extent to which the substrate has been phosphorylated, which in turn is indicative of the amount of protein kinase C present in the sample being assayed. As can be appreciated, by use of the peptide substrate for the present invention, the presence of protein kinase C may be conveniently and rapidly assayed.
# Protein kinase C was prepared from the brains of eight rats each having a weight of from 150 to 200 grams. The rats are sacrificed by cervical dislocation. The brains of the rats are removed and placed in eight volumes of ice-cold buffer A (40 ml), composed of the following: 20 mM 4-(2-hydroxyethyl)-1-piperazineethanesulfonic acid ("HEPES"), pH 7.5; 0.3 M sucrose; 2 mM ethyl-enediaminetetracetic acid ("EDTA"); 10 mM ethylene glycol bis(B -aminoethylether)-N, N, N', N'-tetraacetic acid ("EGTA"); 2 mM dithiothreitol ("DDT"); 1 mM phenylmethylsulfonyl; 10 ug/ml pepstatin A; 10 ug/ml soybean tripsyn inhibitor; 10 ug/ml leupeptin; and 10 uM E-64 (Peninsula Labs). E 64 is an inhibitor of CA^2+ -activated proteases. The brains are homogenized with 5 strokes of teflon-glass homogenizer and centrifuged for one hour at 100,000×g in a Ti 75 rotor. The resulting supernatant is saved and adjusted to a conductivity of 0.7-0.9 mmho. […]
# [2] = system: protein kinase C; conditions: cited from earlier work
reaction rate (rate of phosphorylation) ([1]; peptide concentration 1 mM) [pmole PO4 /min],Substance,"Km (in words) ([1]; protein kinase C, no saturation at 3 mM)",saturation of protein kinase C with substrate ([1]; up to 3 mM peptide),rate of reaction ([2]; peptide concentration 450 μM) [pmole PO4 /min],"Km ([2]; protein kinase C, O'Brian et al., read-out: Km of the reaction) [µM]"
20,"LRRASLG [Kemptide, Leu-Arg-Arg-Ala-Ser-Leu-Gly]",so high that it could not be determined; also recorded: too high to be determined,not saturated; also recorded: will not saturate,–,–
–,RRKASGPPV,–,–,8,130
